Measured values published in PubChem BioAssay AID256 (DTP/NCI, 2004).
Where “and” joins values, the source holds several entries; their conditions need not be identical. Equal entries are not always repeated. Inconclusive results and toxic doses are left out. Rule for the calls: active = survival T/C of 150% or more; inactive = T/C below 125% in these data.

Tested on: CD2F1 mice, L1210 leukemia ip, survival T/C
Test: NCI In Vivo Anticancer Drug Screen. Data for tumor model L1210 Leukemia (intraperitoneal) in CD2F1 (CDF1) mice
Conditions: endpoint: mean survival time, higher = longer survival
Procedure, shortened: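 Each value reflects a quotient of treated over vehicle control outcomes in mice with a transplanted tumor.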

[1] = dose: 100.0 mg/kg/injection, schedule: Q04DX002 (ip), vehicle: saline with Tween-80
[2] = dose: 200.0 mg/kg/injection, schedule: Q04DX002 (ip), vehicle: saline with Tween-80
[3] = dose: 100.0 mg/kg/injection, schedule: Q01DX001 (ip), vehicle: saline with Tween-80
[4] = dose: 200.0 mg/kg/injection, schedule: Q01DX001 (ip), vehicle: saline with Tween-80
[5] = dose: 400.0 mg/kg/injection, schedule: Q01DX001 (ip), vehicle: saline with Tween-80
[6] = dose: 100.0 mg/kg/injection, schedule: Q01DX009 (ip), vehicle: saline with Tween-80
[7] = dose: 200.0 mg/kg/injection, schedule: Q01DX009 (ip), vehicle: saline with Tween-80
[8] = dose: 400.0 mg/kg/injection, schedule: Q01DX009 (ip), vehicle: saline with Tween-80

Measured: T/C

CCN1/C(=C/C=C/C=C\C=C\c2sc3ccc4ccccc4c3[n+]2CC)Sc2ccc3ccccc3c21
inactive: dose: 1.25 mg/kg/injection, schedule: Q01DX009 (ip), vehicle: saline with Tween-80 116 % of control and 117 % of control and 112 % of control | dose: 2.5 mg/kg/injection, schedule: Q01DX009 (ip), vehicle: saline with Tween-80 116 % of control and 119 % of control and 120 % of control | dose: 5.0 mg/kg/injection, schedule: Q01DX009 (ip), vehicle: saline with Tween-80 114 % of control | dose: 10.0 mg/kg/injection, schedule: Q01DX009 (ip), vehicle: saline with Tween-80 117 % of control and 118 % of control | dose: 20.0 mg/kg/injection, schedule: Q01DX009 (ip), vehicle: saline with Tween-80 114 % of control and 116 % of control | dose: 40.0 mg/kg/injection, schedule: Q01DX009 (ip), vehicle: saline with Tween-80 101 % of control and 112 % of control

CC(C)(C)c1ccc(-c2ccncc2)cc1
inactive: [1] 87 % of control | [2] 105 % of control

CC(=O)OCC1OC(n2ncc3c(NCc4ccco4)ncnc32)C(O)C1O (stereo not drawn)
inactive: dose: 25.0 mg/kg/injection, schedule: Q01DX009 (ip), vehicle: water 109 % of control | dose: 50.0 mg/kg/injection, schedule: Q01DX009 (ip), vehicle: water 97 % of control | dose: 100.0 mg/kg/injection, schedule: Q01DX009 (ip), vehicle: water 111 % of control | dose: 200.0 mg/kg/injection, schedule: Q01DX009 (ip), vehicle: water 102 % of control | dose: 400.0 mg/kg/injection, schedule: Q01DX009 (ip), vehicle: water 86 % of control

CS(=O)(=O)Oc1ccccc1OS(C)(=O)=O
inactive: dose: 50.0 mg/kg/injection, schedule: Q04DX002 (ip), vehicle: saline with Tween-80 113 % of control | [1] 113 % of control | [2] 101 % of control

OCC1OC(n2ncc3c2ncn2ccnc32)C(O)C1O (stereo not drawn)
inactive: dose: 12.5 mg/kg/injection, schedule: Q01DX005 (ip), vehicle: water 101 % of control | dose: 25.0 mg/kg/injection, schedule: Q01DX005 (ip), vehicle: water 101 % of control | dose: 50.0 mg/kg/injection, schedule: Q01DX005 (ip), vehicle: water 97 % of control | dose: 100.0 mg/kg/injection, schedule: Q01DX005 (ip), vehicle: water 97 % of control | dose: 200.0 mg/kg/injection, schedule: Q01DX005 (ip), vehicle: water 109 % of control

CCn1c(=O)c2nc(Cl)n(C3OCC(OC(C)=O)C(OC(C)=O)C3OC(C)=O)c2n(CC)c1=O (stereo not drawn)
inactive: dose: 12.5 mg/kg/injection, schedule: Q01DX005 (ip), vehicle: distilled water + Tween-80 96 % of control | dose: 25.0 mg/kg/injection, schedule: Q01DX005 (ip), vehicle: distilled water + Tween-80 96 % of control | dose: 50.0 mg/kg/injection, schedule: Q01DX005 (ip), vehicle: distilled water + Tween-80 96 % of control | dose: 100.0 mg/kg/injection, schedule: Q01DX005 (ip), vehicle: distilled water + Tween-80 98 % of control | dose: 200.0 mg/kg/injection, schedule: Q01DX005 (ip), vehicle: distilled water + Tween-80 98 % of control

c1ccc2c(c1)CCc1ccccc1N2
inactive: [3] 100 % of control | [4] 100 % of control | [5] 91 % of control

O=CNC(CSSCC(NC=O)C(=O)O)C(=O)O (stereo not drawn)
inactive: [6] 100 % of control | [7] 97 % of control | [8] 94 % of control

COc1c(Cl)c(=O)oc2cc(C)c(Cl)c(C)c12
inactive: [3] 93 % of control | [4] 96 % of control | [5] 96 % of control

C[N+]1=C2CCCC2=C(N)CC1
inactive: dose: 6.25 mg/kg/injection, schedule: Q01DX009 (ip), vehicle: saline 105 % of control | dose: 12.5 mg/kg/injection, schedule: Q01DX009 (ip), vehicle: saline 100 % of control | dose: 25.0 mg/kg/injection, schedule: Q01DX009 (ip), vehicle: saline 98 % of control

CCCCCCCC(=O)Nc1ccc(C)c(C)c1
inactive: [6] 89 % of control | [7] 91 % of control | [8] 96 % of control

Cc1cccc(C(=O)CC(O)(C(F)(F)F)C(F)(F)F)c1
inactive: [6] 98 % of control | [7] 95 % of control | [8] 104 % of control

COc1ccc2[nH]c3cc(Cl)ccc3c(=O)c2c1
inactive: [3] 87 % of control | [5] 90 % of control

CNC(=O)NCc1ccc(C(=O)NC(C)C)cc1
inactive: dose: 50.0 mg/kg/injection, schedule: Q01DX009 (ip), vehicle: other 100 % of control | dose: 100.0 mg/kg/injection, schedule: Q01DX009 (ip), vehicle: other 101 % of control | dose: 200.0 mg/kg/injection, schedule: Q01DX009 (ip), vehicle: other 100 % of control | dose: 400.0 mg/kg/injection, schedule: Q01DX009 (ip), vehicle: other 89 % of control

CCOC(=O)CC(=O)NCCc1ccccc1OC
inactive: [3] 102 % of control | [4] 105 % of control | [5] 102 % of control
